Measurements published in patent US20060223729A1, “Photodynamic inactivation of bacterial spores” (priority 2003, published 2006).

Legend:
B. thuringiensis spores = assay: Photodynamic inactivation (PDI) of B. thuringiensis spores, colony-forming units; type: cell-based, B. thuringiensis (ATCC 33740); conditions: 100 μM, 1 hour, 100 mW/cm^2 appropriate wavelength light, 0 to 32 J/cm^2 (FIG. 9, FIG. 10)
Experimental: (§1) The bacteria studied in the following examples were B. atrophaeus (ATCC 9372), B. cereus (ATCC14579), B. thuringiensis (ATCC 33740) and B. subtilis (ATCC 6051). Growing bacterial cells were cultivated in brain-heart infusion (BHI) broth at 37° C. Aliquots of the suspension (10^8/mL) were stored at −80° C. and then used for the experiments.
(§2) For initial experiments spores of B. atrophaeus and B. cereus were purchased from SGM Biotech, Inc (Bozeman, Mont., USA). For subsequent experiments spores of all species were prepared in the laboratory using sporulation broth for B. atrophaeus and B. subtilis, or sporulation agar (Caipo et al., 2002; Nicholson & Setlow, 1990) for B. cereus and B. thuringiensis. The sporulation medium consisted of 16.0 g nutrient broth (Difco), 2.0 g KCl, 0.5 g MgSO4; 17 g of agar. The pH of the medium was adjusted to 7, then autoclaved and cooled. After cooling 1 ml of 1M […], 1 ml of 0.1 M MnCl2.4H2O, 1 ml of 1 mM FeSO4 and 2 ml 50% glucose were added. For spore purification the mixture of spores and cells was centrifuged at 1300 g for 20 min, washed with SX volume 1 M KCl/0.5 M NaCl, rinsed with sterile deionized water, then washed with 1 M NaCl, and rinsed with sterile deionized water again. Lysozyme (50 μg/mL) was added in the presence of buffer (5× volume Tris Cl, 0.05 M, pH 7 2), and incubated with constant stirring at 4° C. overnight. Lysozyme was removed by centrifuging 8 times (at 1300 g) and washing with sterile deionized water. Spores were frozen with 10% glycerol and stored until use. To avoid germination spores were used immediately after defrosting.
(§3) As photosensitizers Rose Bengal, Toluidine Blue O (TBO), Methylene Blue, New Methylene Blue N zinc chloride double salt (NMB), 1,9-Dimethylmethylene Blue Chloride (Sigma-Aldrich—DMMB), Azure A, Azure B, Azure C, methylene violet 3RAX, safranine O, and malachite green, were used. Stock solutions were prepared in water and stored at 4° C. in the dark before use. The concentrations of stock solution were 2 mM.
(§4) When Rose Bengal was used, irradiation was performed with an argon laser at 514 nm. A diode laser with wavelength 670 nm was used for experiments with Methylene Blue and 1,9-Dimethylmethylene Blue Chloride. Diode laser with wavelength 635 nm was used for Toluidine Blue O and New Methylene Blue N. For other dyes either a turnable argon ion pumped dye laser or a 514 nm argon ion laser was used.
(§5) Suspensions of spores or bacteria (10^8/mL, 10^7/mL, 10^6/mL) were incubated with photosensitizers in the dark at room temperature. Incubation time was ranged from 1 min to 24 h and the photosensitizer concentrations varied form 10 μM to 1 mM. The cell suspensions were centrifuged at 20800 g and then washed several times with sterile PBS. The bacterial suspensions were placed on two well (concavities hanging drop) slides (Fisher Scientific) and irradiated with appropriate laser at room temperature. Fluences ranged from 0 to 300 J/cm^2. Fluence rates varied from 0 to 500 mW/cm^2. During irradiation aliquots of 20 μL were taken to determine the colony-forming units. The contents of the wells were mixed before sampling. The aliquots were serially diluted 10-fold in PBS to give dilutions of 10^−1-10^−6 times the original concentrations and were streaked horizontally on square BHI agar plates as described by (Jett et al., 1997). Plates were incubated at 37° C. overnight.
(§6) Two types of control conditions were used: irradiation in the absence of photosensitizers and incubation with photosensitizers in the dark.

B. cereus spores = assay: Photodynamic inactivation (PDI) of B. cereus spores, colony-forming units; type: cell-based, B. cereus (ATCC14579); conditions: for photodynamic killing of spores: 100 mW/cm^2 appropriate wavelength light, 0 to 32 J/cm^2 (FIG. 5, FIG. 8)
Experimental: as §1, §2, §3, §4, §5, §6

[1] = test system: B. subtilis vegetative cells; assay: Photoinactivation of B. subtilis vegetative cells; type: cell-based, B. subtilis (ATCC 6051); conditions: 10(7)/mL, 3 hours at 37° C., 100 mW/cm^2 635-nm light (FIG. 13)
Experimental: as §1
as §5, with “overnight. […]” for “overnight.”

[2] = test system: B. cereus vegetative cells; assay: Photoinactivation of B. cereus vegetative cells; type: cell-based, B. cereus (ATCC14579); conditions: 10(7)/mL, 3 hours at 37° C., 100 mW/cm^2 635-nm light (FIG. 13)
Experimental: as §1
as §5, with “overnight. […]” for “overnight.”

B. subtilis spores = assay: Photodynamic inactivation (PDI) of B. subtilis spores, colony-forming units; type: cell-based, B. subtilis (ATCC 6051); conditions: needs ten times the dye and six times the light of B. cereus and B. thuringiensis; 100 mW/cm^2 635-nm light (FIG. 3)
Experimental: as §1
as §2, with “Lysozyme was removed by centrifuging 8 times (at 1300 g) and washing with sterile deionized water. Spores were frozen with 10% glycerol and stored until use. To avoid germination spores were used immediately after defrosting.” left out

Row | Compound | photodynamic killing of spores (B. thuringiensis spores) | photodynamic killing of spores (B. cereus spores; 100 μM, 1 hour) | further results
1 | CN(C)c1ccc2nc3ccc(N)cc3[s+]c2c1.[Cl-] [Azure A] | effective | effective | –
2 | Cc1cc2nc3cc(C)c(N)cc3[n+](-c3ccccc3)c2cc1N.[Cl-] [safranin O, safranine O] | – | effective | –
3 | CN(C)c1ccc(C(=C2C=CC(=[N+](C)C)C=C2)c2ccccc2)cc1 [malachite green] | – | effective | –
4 | CNc1ccc2nc3ccc(=[N+](C)C)cc-3sc2c1.[Cl-] [Azure B] | effective | effective | –
5 | CN(C)c1ccc2nc3ccc(=[N+](C)C)cc-3sc2c1 [methylene blue, Methylene Blue] | – | effective | –
6 | CNc1ccc2nc3ccc(N)cc3[s+]c2c1.[Cl-] [Azure C] | effective | effective | rank of potency among the dyes of FIG. 5 (B. cereus spores; 100 μM, 1 hour, 100 mW/cm^2 (FIG. 5)): most potent
7 | Cc1cc2nc3ccc(N(C)C)cc3[s+]c2cc1N.[Cl-] [TBO, Toluidine Blue O] | effective | – | killing of spores as a function of concentration and light fluence (B. cereus spores; 10 μM, 100 μM or 1 mM, 10 minutes, 100 mW/cm^2 635-nm light (FIG. 2)): improved, depending on both TBO concentration and light fluence; most effective incubation period (B. cereus spores; 50 μM TBO (FIG. 6)): ≥ 3 h; effect of incubation time on effectiveness of killing (B. cereus spores; 50 μM TBO, 1 minute to 24 hours incubation (FIG. 6)): effectiveness of killing increases with increasing incubation time; spores killed (B. cereus spores; 100 μM, 10 minutes incubation, 100 mW/cm^2 635-nm light (FIG. 1)): greater than 99.9%; killing of spores at the first lowest light dose tested (B. cereus spores; 1 mM dose, 10 minutes, 100 mW/cm^2 635-nm light (FIG. 2)): complete killing; dark toxicity to spores (B. cereus spores; 1 mM dose, 10 minutes, no light (FIG. 2)): significant dark toxicity; sensitivity of vegetative cells to PDI [1]: sensitive to PDI; sensitivity of vegetative cells to PDI [2]: sensitive to PDI; killing of spores (B. subtilis spores): more than 99.9%
8 | CCN(CC)c1ccc2nc3ccc(N)cc3[n+](-c3ccccc3)c2c1.[Cl-] [methylene violet 3RAX] | – | effective | –
9 | New Methylene Blue N zinc chloride double salt [NMB] | effective | effective | –
10 | Cc1cc(N(C)C)cc2[s+]c3cc(N(C)C)cc(C)c3nc12.[Cl-] [DMMB, 1,9-Dimethylmethylene Blue Chloride] | effective | – | effect of incubation time on effectiveness of killing (B. cereus spores; 50 μM DMMB, 1 minute to 24 hours incubation, 670 nm light (FIG. 7)): effectiveness of killing increases with increasing incubation time; killing of spores in PDI (B. cereus spores; DMMB, 670 nm light (FIG. 7)): effective
